How the values were obtained:
[1] = biological target: Mitogen-activated protein kinase kinase kinase 9 (Homo sapiens) (UniProt P80192); settings: at 10 µM
[2] = biological target: Histone-lysine N-methyltransferase KMT5B (Homo sapiens) (UniProt Q4FZB7); experiment: Selectivity interaction (Methyltransferase screen (radiometric assays, panel of 8 PRMTs, 21 protein lysine methyltransferases, 3 DNA methyltransferases, and one RNA methyltransferase)) EUB0000272b SUV420H1
[3] = biological target: T1, MAP/microtubule affinity-regulating kinase 4 (Homo sapiens) (UniProt Q96L34); experiment: Selectivity interaction (KinomeScan (DiscoverX)) EUB0001079a MARK4; settings: at 1 µM
T1 sequence (whole entry): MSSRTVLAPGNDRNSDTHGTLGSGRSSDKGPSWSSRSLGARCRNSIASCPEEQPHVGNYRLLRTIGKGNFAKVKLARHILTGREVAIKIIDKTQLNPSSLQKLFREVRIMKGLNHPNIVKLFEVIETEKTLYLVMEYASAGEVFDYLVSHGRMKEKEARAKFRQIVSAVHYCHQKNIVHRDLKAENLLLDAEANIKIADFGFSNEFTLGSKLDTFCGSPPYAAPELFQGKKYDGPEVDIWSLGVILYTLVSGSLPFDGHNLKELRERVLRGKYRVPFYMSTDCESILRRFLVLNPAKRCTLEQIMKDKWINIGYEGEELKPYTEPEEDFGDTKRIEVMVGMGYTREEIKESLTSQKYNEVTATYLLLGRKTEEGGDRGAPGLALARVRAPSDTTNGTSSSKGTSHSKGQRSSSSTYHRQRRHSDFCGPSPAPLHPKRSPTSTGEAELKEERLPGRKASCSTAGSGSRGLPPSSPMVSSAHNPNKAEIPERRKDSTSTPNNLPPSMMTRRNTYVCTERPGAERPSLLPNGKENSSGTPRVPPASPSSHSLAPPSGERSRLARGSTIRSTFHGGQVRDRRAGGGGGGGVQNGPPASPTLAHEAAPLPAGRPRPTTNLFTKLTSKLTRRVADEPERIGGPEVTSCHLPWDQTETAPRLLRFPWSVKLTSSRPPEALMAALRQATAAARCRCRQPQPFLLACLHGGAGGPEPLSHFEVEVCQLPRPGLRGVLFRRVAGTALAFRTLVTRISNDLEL

[4] = biological target: Phosphatidylinositol 4-phosphate 5-kinase type-1 gamma (Homo sapiens) (UniProt O60331); experiment: Selectivity interaction (KinomeScan (DiscoverX)) EUB0001079a PIP5K1C; settings: at 1 µM
[5] = biological target: Protein kinase C delta type (Homo sapiens) (UniProt Q05655); experiment: Selectivity interaction (KinomeScan (DiscoverX)) EUB0000618a PRKCD; settings: at 10 µM
[6] = biological target: Activin receptor type-2A (Homo sapiens) (UniProt P27037); experiment: Selectivity interaction (KinomeScan (DiscoverX)) EUB0000618a ACVR2A; settings: at 10 µM
[7] = biological target: Mitogen-activated protein kinase kinase kinase kinase 5 (Homo sapiens) (UniProt Q9Y4K4); experiment: Selectivity interaction (ActivX KiNativ screen (ex vivo kinase selectivity in human PBMCs)) EUB0001619a MAP4K5; assay type: cell-based; settings: PBMC, at 1 µM
[8] = biological target: T2, Histone-arginine methyltransferase CARM1 (Homo sapiens) (UniProt Q86X55); settings: at 1 µM
T2 sequence (whole entry): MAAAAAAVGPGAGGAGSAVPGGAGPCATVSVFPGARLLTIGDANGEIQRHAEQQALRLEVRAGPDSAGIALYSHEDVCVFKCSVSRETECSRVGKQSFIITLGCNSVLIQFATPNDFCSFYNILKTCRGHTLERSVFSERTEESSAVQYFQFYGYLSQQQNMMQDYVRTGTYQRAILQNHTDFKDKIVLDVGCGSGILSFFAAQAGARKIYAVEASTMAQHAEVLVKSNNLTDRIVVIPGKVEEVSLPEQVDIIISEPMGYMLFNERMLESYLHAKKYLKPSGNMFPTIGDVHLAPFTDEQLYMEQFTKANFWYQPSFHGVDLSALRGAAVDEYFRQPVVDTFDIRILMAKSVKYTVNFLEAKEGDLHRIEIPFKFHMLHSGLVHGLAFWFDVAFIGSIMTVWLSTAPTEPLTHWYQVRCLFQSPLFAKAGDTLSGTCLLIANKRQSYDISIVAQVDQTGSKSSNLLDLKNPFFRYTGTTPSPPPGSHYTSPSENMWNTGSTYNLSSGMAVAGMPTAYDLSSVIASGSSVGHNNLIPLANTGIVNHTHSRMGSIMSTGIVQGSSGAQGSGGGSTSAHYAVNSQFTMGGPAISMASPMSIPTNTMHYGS

[9] = biological target: Serine/threonine-protein kinase tousled-like 2 (Homo sapiens) (UniProt Q86UE8); settings: at 10 µM
[10] = biological target: Tyrosine-protein kinase Yes (Homo sapiens) (UniProt P07947); experiment: Selectivity interaction (KinomeScan (DiscoverX)) EUB0001049a YES1; settings: at 1 µM
[11] = test system: Phosphatidylinositol 4,5-bisphosphate 3-kinase catalytic subunit alpha isoform (Homo sapiens), P42336 [Q546K]; experiment: (§1) Selectivity interaction (KinomeScan (DiscoverX)) EUB0001049a PIK3CA; settings: at 1 µM
[12] = test system: Phosphatidylinositol 4,5-bisphosphate 3-kinase catalytic subunit alpha isoform (Homo sapiens), P42336 [I800L]; experiment: as §1; settings: at 1 µM
[13] = test system: Phosphatidylinositol 4,5-bisphosphate 3-kinase catalytic subunit alpha isoform (Homo sapiens), P42336 [E542K]; experiment: as §1; settings: at 1 µM
[14] = test system: Phosphatidylinositol 4,5-bisphosphate 3-kinase catalytic subunit alpha isoform (Homo sapiens), P42336 [M1043I]; experiment: as §1; settings: at 1 µM
[15] = test system: Phosphatidylinositol 4,5-bisphosphate 3-kinase catalytic subunit alpha isoform (Homo sapiens), P42336 [E545A]; experiment: as §1; settings: at 1 µM
[16] = biological target: Phosphatidylinositol 4,5-bisphosphate 3-kinase catalytic subunit alpha isoform (Homo sapiens) (UniProt P42336); experiment: as §1; settings: at 1 µM
[17] = test system: Phosphatidylinositol 4,5-bisphosphate 3-kinase catalytic subunit alpha isoform (Homo sapiens), P42336 [E545K]; experiment: as §1; settings: at 1 µM
[18] = test system: Phosphatidylinositol 4,5-bisphosphate 3-kinase catalytic subunit alpha isoform (Homo sapiens), P42336 [C420R]; experiment: as §1; settings: at 1 µM
[19] = test system: Phosphatidylinositol 4,5-bisphosphate 3-kinase catalytic subunit alpha isoform (Homo sapiens), P42336 [H1047L]; experiment: as §1; settings: at 1 µM
[20] = test system: Phosphatidylinositol 4,5-bisphosphate 3-kinase catalytic subunit alpha isoform (Homo sapiens), P42336 [H1047Y]; experiment: as §1; settings: at 1 µM
[21] = biological target: Mitogen-activated protein kinase 10 (Homo sapiens, UniProt P53779); experiment: Selectivity interaction (KinomeScan (DiscoverX)) EUB0000695a MAPK10; settings: at 100 nM

Histone-lysine N-methyltransferase KMT5B (Homo sapiens), sequence (Q4FZB7 whole entry, looked up): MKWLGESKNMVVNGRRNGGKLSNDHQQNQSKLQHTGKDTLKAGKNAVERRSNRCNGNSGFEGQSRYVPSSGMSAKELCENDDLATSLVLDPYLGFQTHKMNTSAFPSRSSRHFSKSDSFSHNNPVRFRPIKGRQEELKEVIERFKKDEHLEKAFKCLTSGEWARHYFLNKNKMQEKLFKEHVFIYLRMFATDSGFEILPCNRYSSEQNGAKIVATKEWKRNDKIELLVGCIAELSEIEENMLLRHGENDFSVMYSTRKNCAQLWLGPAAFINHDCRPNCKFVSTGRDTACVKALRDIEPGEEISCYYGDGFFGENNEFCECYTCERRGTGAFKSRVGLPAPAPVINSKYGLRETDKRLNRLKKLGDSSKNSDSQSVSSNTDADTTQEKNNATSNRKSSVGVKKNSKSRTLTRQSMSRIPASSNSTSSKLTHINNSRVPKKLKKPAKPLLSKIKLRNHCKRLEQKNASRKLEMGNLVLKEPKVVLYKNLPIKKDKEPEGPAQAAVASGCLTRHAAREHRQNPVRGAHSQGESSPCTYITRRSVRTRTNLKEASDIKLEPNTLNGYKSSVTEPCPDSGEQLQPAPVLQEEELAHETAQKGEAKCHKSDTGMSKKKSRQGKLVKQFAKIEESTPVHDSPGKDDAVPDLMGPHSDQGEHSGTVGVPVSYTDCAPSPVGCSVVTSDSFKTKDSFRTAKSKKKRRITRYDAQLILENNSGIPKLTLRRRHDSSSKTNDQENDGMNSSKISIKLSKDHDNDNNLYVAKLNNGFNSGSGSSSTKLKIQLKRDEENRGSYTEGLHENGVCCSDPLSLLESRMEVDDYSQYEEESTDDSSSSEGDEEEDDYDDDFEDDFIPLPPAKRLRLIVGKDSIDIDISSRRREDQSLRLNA
Mitogen-activated protein kinase kinase kinase kinase 5 (Homo sapiens), sequence (Q9Y4K4 whole entry, looked up): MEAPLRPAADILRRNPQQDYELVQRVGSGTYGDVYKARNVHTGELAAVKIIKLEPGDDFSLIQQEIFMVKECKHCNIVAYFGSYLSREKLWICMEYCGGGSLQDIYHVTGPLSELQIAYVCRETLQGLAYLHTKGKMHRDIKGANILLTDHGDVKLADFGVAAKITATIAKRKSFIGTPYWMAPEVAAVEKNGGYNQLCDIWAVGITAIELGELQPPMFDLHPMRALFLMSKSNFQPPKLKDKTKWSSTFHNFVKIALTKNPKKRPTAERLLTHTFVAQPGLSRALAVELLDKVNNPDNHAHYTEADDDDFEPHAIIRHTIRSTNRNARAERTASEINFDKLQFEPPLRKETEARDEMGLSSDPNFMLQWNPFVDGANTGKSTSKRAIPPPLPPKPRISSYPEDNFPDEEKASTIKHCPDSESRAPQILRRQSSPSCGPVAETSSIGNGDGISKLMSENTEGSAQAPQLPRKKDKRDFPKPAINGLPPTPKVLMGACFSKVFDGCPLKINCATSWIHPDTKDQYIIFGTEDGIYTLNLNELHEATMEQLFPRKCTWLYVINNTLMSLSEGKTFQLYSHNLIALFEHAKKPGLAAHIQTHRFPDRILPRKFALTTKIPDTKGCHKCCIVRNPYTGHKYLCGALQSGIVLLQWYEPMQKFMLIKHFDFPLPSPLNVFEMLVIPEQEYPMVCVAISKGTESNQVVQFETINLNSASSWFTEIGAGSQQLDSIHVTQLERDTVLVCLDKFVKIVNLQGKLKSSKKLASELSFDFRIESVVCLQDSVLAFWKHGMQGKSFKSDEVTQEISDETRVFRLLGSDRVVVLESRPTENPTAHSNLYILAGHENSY
Phosphatidylinositol 4,5-bisphosphate 3-kinase catalytic subunit alpha isoform (Homo sapiens), P42336 [E542K], sequence (P42336 whole entry E542K, canonical isoform): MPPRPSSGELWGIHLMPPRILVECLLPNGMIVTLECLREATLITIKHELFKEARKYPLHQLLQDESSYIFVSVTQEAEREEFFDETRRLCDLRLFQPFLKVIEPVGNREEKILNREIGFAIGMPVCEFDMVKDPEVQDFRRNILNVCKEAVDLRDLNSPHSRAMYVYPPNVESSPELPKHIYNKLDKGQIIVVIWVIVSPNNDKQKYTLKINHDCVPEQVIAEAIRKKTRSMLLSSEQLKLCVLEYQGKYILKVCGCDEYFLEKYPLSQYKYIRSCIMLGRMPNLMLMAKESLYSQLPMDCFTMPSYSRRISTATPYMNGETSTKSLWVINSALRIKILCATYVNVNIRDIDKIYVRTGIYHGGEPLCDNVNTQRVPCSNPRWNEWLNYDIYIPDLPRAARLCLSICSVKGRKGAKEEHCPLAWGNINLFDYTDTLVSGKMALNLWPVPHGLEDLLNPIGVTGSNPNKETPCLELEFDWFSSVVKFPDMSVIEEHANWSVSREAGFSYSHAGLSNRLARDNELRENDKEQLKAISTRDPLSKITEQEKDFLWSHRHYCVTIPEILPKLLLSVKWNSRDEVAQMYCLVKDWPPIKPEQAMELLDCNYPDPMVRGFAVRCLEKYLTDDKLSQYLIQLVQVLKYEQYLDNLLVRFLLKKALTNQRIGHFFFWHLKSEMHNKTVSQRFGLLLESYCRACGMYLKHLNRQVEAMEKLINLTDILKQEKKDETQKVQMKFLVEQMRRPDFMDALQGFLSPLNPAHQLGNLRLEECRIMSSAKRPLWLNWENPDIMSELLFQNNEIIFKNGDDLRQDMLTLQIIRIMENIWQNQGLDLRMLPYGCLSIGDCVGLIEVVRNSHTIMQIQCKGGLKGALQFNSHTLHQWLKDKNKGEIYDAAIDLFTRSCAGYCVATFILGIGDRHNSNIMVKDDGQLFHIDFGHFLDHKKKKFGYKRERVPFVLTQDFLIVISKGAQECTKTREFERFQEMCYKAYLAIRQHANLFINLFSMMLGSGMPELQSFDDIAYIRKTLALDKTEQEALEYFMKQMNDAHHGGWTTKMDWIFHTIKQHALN
Phosphatidylinositol 4,5-bisphosphate 3-kinase catalytic subunit alpha isoform (Homo sapiens), P42336 [C420R], sequence (P42336 whole entry C420R, canonical isoform): as the sequence (P42336 whole entry E542K, canonical isoform) above, with C420R, K542E counted along it
Phosphatidylinositol 4,5-bisphosphate 3-kinase catalytic subunit alpha isoform (Homo sapiens), P42336 [M1043I], sequence (P42336 whole entry M1043I, canonical isoform): as the sequence (P42336 whole entry E542K, canonical isoform) above, with K542E, M1043I counted along it

## CCN(CC)CCCCNc1ncc2cc(-c3cc(OC)cc(OC)c3)c(NC(=O)NC(C)(C)C)nc2n1
[1]
  % of control: 100%

## Cc1cc(C)cc([C@H]2c3cc(C)ccc3NC(=O)CN2C(=O)c2ccc(Br)s2)c1
[2]; at 1 µM
  % of activity: 103%
[2]; at 10 µM
  % of activity: 103%

## Nc1cnc(N2CCc3cc(S(=O)(=O)Nc4c(F)cc(Cl)cc4F)cc(N4CCCC4=O)c32)nc1 [TP-020n]
[3]
  % of control: 79%
[4]
  % of control: 75%

## O[C@H]1CC[C@H](Nc2ncc3nc(Nc4c(F)cc(F)cc4F)n([C@H]4CCOC4)c3n2)CC1
[5]
  % of control: 93%
[6]
  % of control: 92%

## N#Cc1cccc(-c2c[nH]c3ncnc(N4CCOCC4)c23)c1
[7]
  % of inhibition: 13%

## CNCCN1CCC(c2cc(CN(C)C(=O)c3cccc(Oc4ccccc4)c3)ccn2)CC1
[8]
  % activity: 75%

## Cc1cc([C@@H](C)Nc2ccccc2C(=O)O)c2nc(N3CCOCC3)cc(=O)n2c1 [AZD-6482]
[9]
  % of control: 88%

## COc1cc(Nc2nc(C)cc(-c3cnn4nc(OC)ccc34)n2)cc(C(F)(F)F)c1
[10]
  % of control: 80%
[11]
  % of control: 66%
[12]
  % of control: 46%
[13]
  % of control: 59%
[14]
  % of control: 100%
[15]
  % of control: 77%
[16]
  % of control: 100%
[17]
  % of control: 71%
[18]
  % of control: 76%
[19]
  % of control: 100%
[20]
  % of control: 85%

## Cc1cc(F)c(C(=O)Nc2cccc(-c3nncn3C(C)C)n2)cc1-n1cnc(C2CC2)c1
[21]
  % of control: 71%

From ChEMBL document CHEMBL5465560, “Selectivity Literature for EUbOPEN Chemogenomic Library” (2024)
